Assay results reported in US20260274892A1, “MACROCYCLIC BROAD SPECTRUM ANTIBIOTICS” (RQx Pharmaceuticals, Inc., priority 2017, published 2026).

tested on: Escherichia coli ATCC 25922; assay: Minimum inhibitory concentration (MIC), CLSI broth micro-dilution, E. coli; type: cell-based; settings: Escherichia coli, ATCC25922, 22 h, Table 7, cation adjusted Mueller Hinton Broth + 0.002% Tween-80, 35° C.
Outline: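 Colonies grown 20 h at 35° C on Trypticase Soy agar (MRSA) or Luria agar (E. coli) were suspended in cation-adjusted Mueller Hinton broth with 0.002% Tween-80. Suspensions were added at OD600 0.0005 to 10-point twofold compound dilutions, then incubated 22 h at 35° C.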

| SMILES | MIC |
| --- | --- |
| Cc1nc(-c2ccc(OC3CCCCC3)cc2)nc(C)c1C(=O)N[C@@H](CNS(N)(=O)=O)C(=O)N[C@@H]1C(=O)N[C@@H](C)C(=O)N[C@H](C(=O)NCC#N)Cc2ccc(OCCN)c(c2)-c2cc1ccc2OCCN (racemic) [Compound 573, rac-(8S,11S,14S)-3,18-bis(2-aminoethoxy)-N-(cyanomethyl)-11-methyl-10,13-dioxo-14-[[rac-(2S)-2-[[2-[4-(cyclohexoxy)phenyl]-4,6-dimethyl-pyrimidine-5-carbonyl]amino]-3-(sulfamoylamino)propanoyl]amino]-9,12-diazatricyclo[13.3.1.12,6]icosa-1(18),2(20),3,5,15(19),16-hexaene-8-carboxamide] | 0.5 µM |
| Cc1nc(-c2ccc(C(C)(C)C)cc2)nc(C)c1C(=O)N[C@@H](CCNS(N)(=O)=O)C(=O)N(C)[C@@H]1C(=O)N[C@@H](C)C(=O)N[C@H](C(=O)NCC#N)Cc2ccc(OCCN)c(c2)-c2cc1ccc2OCCN (racemic) [Compound 574, rac-(8S,11S,14S)-3,18-bis(2-aminoethoxy)-N-(cyanomethyl)-11-methyl-14-[methyl-[rac-(2S)-2-[[2-(4-tert-butylphenyl)-4,6-dimethyl-pyrimidine-5-carbonyl]amino]-4-(sulfamoylamino)butanoyl]amino]-10,13-dioxo-9,12-diazatricyclo[13.3.1.12,6]icosa-1(18),2(20),3,5,15(19),16-hexaene-8-carboxamide] | 0.5 µM |
| Cc1nc(-c2ccc(C(C)(C)C)cc2)nc(C)c1C(=O)N[C@@H](CNS(N)(=O)=O)C(=O)N(C)[C@@H]1C(=O)N[C@@H](C)C(=O)N[C@H](C(=O)NCC#N)Cc2ccc(OCCCN)c(c2)-c2cc1ccc2OCCCN (racemic) [Compound 575, rac-(8S,11S,14S)-3,18-bis(3-aminopropoxy)-N-(cyanomethyl)-11-methyl-14-[methyl-[rac-(2S)-2-[[2-(4-tert-butylphenyl)-4,6-dimethyl-pyrimidine-5-carbonyl]amino]-3-(sulfamoylamino)propanoyl]amino]-10,13-dioxo-9,12-diazatricyclo[13.3.1.12,6]icosa-1(18),2(20),3,5,15(19),16-hexaene-8-carboxamide] | 0.31 µM |
| Cc1nc(-c2ccc(OC3CCCCC3)cc2)nc(C)c1C(=O)N[C@@H](CNS(N)(=O)=O)C(=O)N(C)[C@@H]1C(=O)N[C@@H](C)C(=O)N[C@H](C(=O)NCC#N)Cc2ccc(OCCCN)c(c2)-c2cc1ccc2OCCCN (racemic) [Compound 576, rac-(8S,11S,14S)-3,18-bis(3-aminopropoxy)-N-(cyanomethyl)-11-methyl-14-[methyl-[rac-(2S)-2-[[2-[4-(cyclohexoxy)phenyl]-4,6-dimethyl-pyrimidine-5-carbonyl]amino]-3-(sulfamoylamino)propanoyl]amino]-10,13-dioxo-9,12-diazatricyclo[13.3.1.12,6]icosa-1(18),2(20),3,5,15(19),16-hexaene-8-carboxamide] | 0.5 µM |
| Cc1nc(-c2ccc(C(C)(C)C)cc2)nc(C)c1C(=O)N[C@@H](CNS(N)(=O)=O)C(=O)N(C)[C@@H]1C(=O)N[C@@H](C)C(=O)N[C@H](C(=O)NCC#N)Cc2ccc(OC[C@H](O)CN)c(c2)-c2cc1ccc2OC[C@H](O)CN (racemic) [Compound 577, rac-(8S,11S,14S)-N-(cyanomethyl)-11-methyl-14-[methyl-[rac-(2S)-2-[[2-(4-tert-butylphenyl)-4,6-dimethyl-pyrimidine-5-carbonyl]amino]-3-(sulfamoylamino)propanoyl]amino]-10,13-dioxo-3,18-bis[rac-(2R)-3-amino-2-hydroxy-propoxy]-9,12-diazatricyclo[13.3.1.12,6]icosa-1(18),2(20),3,5,15(19),16-hexaene-8-carboxamide] | 0.21 µM |
| Cc1nc(-c2ccc(OC3CCCCC3)cc2)nc(C)c1C(=O)N[C@@H](CNS(N)(=O)=O)C(=O)N(C)[C@@H]1C(=O)N[C@@H](C)C(=O)N[C@H](C(=O)NCC#N)Cc2ccc(OC[C@H](O)CN)c(c2)-c2cc1ccc2OC[C@H](O)CN (racemic) [Compound 578, rac-(8S,11S,14S)-N-(cyanomethyl)-11-methyl-14-[methyl-[rac-(2S)-2-[[2-[4-(cyclohexoxy)phenyl]-4,6-dimethyl-pyrimidine-5-carbonyl]amino]-3-(sulfamoylamino)propanoyl]amino]-10,13-dioxo-3,18-bis[rac-(2R)-3-amino-2-hydroxy-propoxy]-9,12-diazatricyclo[13.3.1.12,6]icosa-1(18),2(20),3,5,15(19),16-hexaene-8-carboxamide] | 0.19 µM |
| Cc1nc(-c2ccc(OC(C)C)cc2)nc(C)c1C(=O)N[C@@H](CNS(N)(=O)=O)C(=O)N(C)[C@@H]1C(=O)N[C@@H](C)C(=O)N[C@H](C(=O)NCC#N)Cc2ccc(OC[C@H](O)CN)c(c2)-c2cc1ccc2OC[C@H](O)CN (racemic) [Compound 579, rac-(8S,11S,14S)-N-(cyanomethyl)-11-methyl-14-[methyl-[rac-(2S)-2-[[2-(4-isopropoxyphenyl)-4,6-dimethyl-pyrimidine-5-carbonyl]amino]-3-(sulfamoylamino)propanoyl]amino]-10,13-dioxo-3,18-bis[rac-(2R)-3-amino-2-hydroxy-propoxy]-9,12-diazatricyclo[13.3.1.12,6]icosa-1(18),2(20),3,5,15(19),16-hexaene-8-carboxamide] | 0.75 µM |
| Cc1nc(-c2ccc(C(C)(C)C)cc2)nc(C)c1C(=O)N[C@@H](CCNS(N)(=O)=O)C(=O)N(C)[C@@H]1C(=O)N[C@@H](C)C(=O)N[C@H](C(=O)NCC#N)Cc2ccc(OC[C@H](O)CN)c(c2)-c2cc1ccc2OC[C@H](O)CN (racemic) [Compound 580, rac-(8S,11S,14S)-N-(cyanomethyl)-11-methyl-14-[methyl-[rac-(2S)-2-[[2-(4-tert-butylphenyl)-4,6-dimethyl-pyrimidine-5-carbonyl]amino]-4-(sulfamoylamino)butanoyl]amino]-10,13-dioxo-3,18-bis[rac-(2R)-3-amino-2-hydroxy-propoxy]-9,12-diazatricyclo[13.3.1.12,6]icosa-1(18),2(20),3,5,15(19),16-hexaene-8-carboxamide] | 0.58 µM |
| Cc1nc(-c2ccc(C(C)(C)C)cc2)nc(C)c1C(=O)N[C@@H](CNS(N)(=O)=O)C(=O)N(C)[C@@H]1C(=O)N[C@@H](C)C(=O)N[C@H](C(=O)NCC#N)Cc2ccc(OC[C@@H](O)CN)c(c2)-c2cc1ccc2OC[C@@H](O)CN (racemic) [Compound 581, rac-(8S,11S,14S)-N-(cyanomethyl)-11-methyl-14-[methyl-[rac-(2S)-2-[[2-(4-tert-butylphenyl)-4,6-dimethyl-pyrimidine-5-carbonyl]amino]-3-(sulfamoylamino)propanoyl]amino]-10,13-dioxo-3,18-bis[rac-(2S)-3-amino-2-hydroxy-propoxy]-9,12-diazatricyclo[13.3.1.12,6]icosa-1(18),2(20),3,5,15(19),16-hexaene-8-carboxamide] | 0.25 µM |
| Cc1nc(-c2ccc(C(C)(C)C)cc2)nc(C)c1C(=O)N[C@@H](CNS(N)(=O)=O)C(=O)N(C)[C@@H]1C(=O)N[C@@H](C)C(=O)N[C@H](C(=O)NCC#N)Cc2ccc(OCCN)c(c2)-c2cc1cc(OCCN)c2O (racemic) [Compound 584, rac-(8S,11S,14S)-3,17-bis(2-aminoethoxy)-N-(cyanomethyl)-18-hydroxy-11-methyl-14-[methyl-[rac-(2S)-2-[[2-(4-tert-butylphenyl)-4,6-dimethyl-pyrimidine-5-carbonyl]amino]-3-(sulfamoylamino)propanoyl]amino]-10,13-dioxo-9,12-diazatricyclo[13.3.1.12,6]icosa-1(18),2(20),3,5,15(19),16-hexaene-8-carboxamide] | 0.5 µM |
| COc1c(OC[C@H](O)CN)cc2cc1-c1cc(ccc1OC[C@H](O)CN)C[C@@H](C(=O)NCC#N)NC(=O)[C@H](C)NC(=O)[C@H]2N(C)C(=O)[C@H](CCN)NC(=O)c1c(C)nc(-c2ccc(C(C)(C)C)cc2)nc1C (racemic) [Compound 586, rac-(8S,11S,14S)-N-(cyanomethyl)-18-methoxy-11-methyl-14-[methyl-[rac-(2S)-4-amino-2-[[2-(4-tert-butylphenyl)-4,6-dimethyl-pyrimidine-5-carbonyl]amino]butanoyl]amino]-10,13-dioxo-3,17-bis[rac-(2R)-3-amino-2-hydroxy-propoxy]-9,12-diazatricyclo[13.3.1.12,6]icosa-1(18),2(20),3,5,15(19),16-hexaene-8-carboxamide] | 0.19 µM |

same assay, conditions: Escherichia coli, ATCC25922, Table 7, cation adjusted Mueller Hinton Broth + 0.002% Tween-80, 35° C., 22 hours

| SMILES | MIC |
| --- | --- |
| Cc1nc(-c2ccc(C(C)(C)C)cc2)nc(C)c1C(=O)N[C@@H](CNS(N)(=O)=O)C(=O)N(C)[C@@H]1C(=O)N[C@@H](C)C(=O)N[C@H](C(=O)NCC#N)Cc2ccc(OC[C@H](O)CN)c(c2)-c2cc1cc(OC[C@H](O)CN)c2O (racemic) [Compound 582, rac-(8S,11S,14S)-N-(cyanomethyl)-18-hydroxy-11-methyl-14-[methyl-[rac-(2S)-2-[[2-(4-tert-butylphenyl)-4,6-dimethyl-pyrimidine-5-carbonyl]amino]-3-(sulfamoylamino)propanoyl]amino]-10,13-dioxo-3,17-bis[rac-(2R)-3-amino-2-hydroxy-propoxy]-9,12-diazatricyclo[13.3.1.12,6]icosa-1(18),2(20),3,5,15(19),16-hexaene-8-carboxamide] | 0.75 µM |
| COc1c(OCCN)cc2cc1-c1cc(ccc1OCCN)C[C@@H](C(=O)NCC#N)NC(=O)[C@H](C)NC(=O)[C@H]2N(C)C(=O)[C@H](CNS(N)(=O)=O)NC(=O)c1c(C)nc(-c2ccc(C(C)(C)C)cc2)nc1C (racemic) [Compound 585, rac-(8S,11S,14S)-3,17-bis(2-aminoethoxy)-N-(cyanomethyl)-18-methoxy-11-methyl-14-[methyl-[rac-(2S)-2-[[2-(4-tert-butylphenyl)-4,6-dimethyl-pyrimidine-5-carbonyl]amino]-3-(sulfamoylamino)propanoyl]amino]-10,13-dioxo-9,12-diazatricyclo[13.3.1.12,6]icosa-1(18),2(20),3,5,15(19),16-hexaene-8-carboxamide] | 0.38 µM |
